Values quoted from earlier work in patent US11197931B2, “Liquid injectable copolymer” (Queen's University at Kingston, priority 2017, dated 2021).

Settings: 25° C.

saturation concentration: 80 mg/L
Structure (SMILES): C[C@]12C=CC(=O)C=C1CC[C@H]1[C@@H]3C[C@@H](O)[C@](O)(C(=O)CO)[C@@]3(C)C[C@H](O)[C@@]12F [triamcinolone]
